From publication PMC9866191, “Novel 9-Benzylaminoacridine Derivatives as Dual Inhibitors of Phosphodiesterase 5 and Topoisomerase II for the Treatment of Colon Cancer” (Molecules, 2023)

Experiments:
Assay in all cases: NCI-60 one-dose screen
Type in all cases: cell-based
HS 578T = details: Homo sapiens, Breast Cancer panel, single dose 10^−5 M, read-out: Growth inhibition %
MCF7 = details: Homo sapiens; MCF7, Breast Cancer panel; single dose 10^−5 M; read-out: Growth inhibition %
OVCAR-5 = details: Homo sapiens; OVCAR-5, Ovarian Cancer panel; single dose 10^−5 M; read-out: Growth inhibition %
HOP-92 = details: Homo sapiens; HOP-92, Non-small cell lung panel; single dose 10^−5 M; read-out: Growth inhibition %
OVCAR-3 = details: Homo sapiens; OVCAR-3, Ovarian Cancer panel; single dose 10^−5 M; read-out: Growth inhibition %
OVCAR-8 = details: Homo sapiens; OVCAR-8, Ovarian Cancer panel; single dose 10^−5 M; read-out: Growth inhibition %
NCI/ADR-RES = details: Homo sapiens, Ovarian Cancer panel, single dose 10^−5 M, read-out: Growth inhibition %
OVCAR-4 = details: Homo sapiens; OVCAR-4, Ovarian Cancer panel; single dose 10^−5 M; read-out: Growth inhibition %
COLO 205 = details: Homo sapiens; COLO 205, Colon Cancer panel; single dose 10^−5 M; read-out: Growth inhibition %
MOLT-4 = details: Homo sapiens; MOLT-4, Leukemia panel; single dose 10^−5 M; read-out: Growth inhibition %
MDA-MB-435 = details: Homo sapiens; MDA-MB-435, Melanoma panel; single dose 10^−5 M; read-out: Growth inhibition %
NCI-H522 = details: Homo sapiens; NCI-H522, Non-small cell lung panel; single dose 10^−5 M; read-out: Growth inhibition %
NCI-H23 = details: Homo sapiens; NCI-H23, Non-small cell lung panel; single dose 10^−5 M; read-out: Growth inhibition %
UACC-257 = details: Homo sapiens; UACC-257, Melanoma panel; single dose 10^−5 M; read-out: Growth inhibition %
SR = details: Homo sapiens, Leukemia panel, single dose 10^−5 M, read-out: Growth inhibition %
M14 = details: Homo sapiens; M14, Melanoma panel; single dose 10^−5 M; read-out: Growth inhibition %
HL-60(TB) = details: Homo sapiens, Leukemia panel, single dose 10^−5 M, read-out: Growth inhibition %
SK-MEL-5 = details: Homo sapiens; SK-MEL-5, Melanoma panel; single dose 10^−5 M; read-out: Growth inhibition %
EKVX = details: Homo sapiens, Non-small cell lung panel, single dose 10^−5 M, read-out: Growth inhibition %
SN12C = details: Homo sapiens, Renal Cancer panel, single dose 10^−5 M, read-out: Growth inhibition %
HCC-2998 = details: Homo sapiens; HCC-2998, Colon Cancer panel; single dose 10^−5 M; read-out: Growth inhibition %
786-0 = details: Homo sapiens; 786-0, Renal Cancer panel; single dose 10^−5 M; read-out: Growth inhibition %
HCT-116 = details: Homo sapiens, read-out: Growth inhibition %
UO-31 = details: Homo sapiens; UO-31, Renal Cancer panel; single dose 10^−5 M; read-out: Growth inhibition %
A498 = details: Homo sapiens; A498, Renal Cancer panel; single dose 10^−5 M; read-out: Growth inhibition %
HCT-15 = details: Homo sapiens; HCT-15, Colon Cancer panel; single dose 10^−5 M; read-out: Growth inhibition %
HOP-62 = details: Homo sapiens; HOP-62, Non-small cell lung panel; single dose 10^−5 M; read-out: Growth inhibition %
TK-10 = details: Homo sapiens; TK-10, Renal Cancer panel; single dose 10^−5 M; read-out: Growth inhibition %
UACC-62 = details: Homo sapiens; UACC-62, Melanoma panel; single dose 10^−5 M; read-out: Growth inhibition %
SF-295 = details: Homo sapiens; SF-295, CNS Cancer panel; single dose 10^−5 M; read-out: Growth inhibition %
T-47D = details: Homo sapiens, T47D, Breast Cancer panel, single dose 10^−5 M, read-out: Growth inhibition %
MALME-3M = details: Homo sapiens, Melanoma panel, single dose 10^−5 M, read-out: Growth inhibition %

Structure (SMILES)	inhibition at 10 µM (HS 578T)	inhibition at 10 µM (MCF7)	inhibition at 10 µM (OVCAR-5)	inhibition at 10 µM (HOP-92)	inhibition at 10 µM (OVCAR-3)	inhibition at 10 µM (OVCAR-8)	inhibition at 10 µM (NCI/ADR-RES)	inhibition at 10 µM (OVCAR-4)	inhibition at 10 µM (COLO 205)	inhibition at 10 µM (MOLT-4)	inhibition at 10 µM (MDA-MB-435)	inhibition at 10 µM (NCI-H522)	inhibition at 10 µM (NCI-H23)	inhibition at 10 µM (UACC-257)	inhibition at 10 µM (SR)	inhibition at 10 µM (M14)	inhibition at 10 µM (HL-60(TB))	inhibition at 10 µM (SK-MEL-5)	inhibition at 10 µM (EKVX)	inhibition at 10 µM (SN12C)	further results
Cc1ccccc1CNc1c2ccccc2nc2ccccc12 [Compound 2, Acridin-9-yl-(2-methylbenzyl)-amine]	64.3%	93.1%	63.3%	101%	68.7%	79%	75.2%	67.1%	119%	91.2%	76.1%	50%	76.6%	67.3%	97.3%	86.8%	84.7%	66.1%	61.6%	75.7%	inhibition at 10 µM (HCC-2998): 83.8%; inhibition at 10 µM (786-0): 75.7%; inhibition at 10 µM (HCT-116): 92.1%; inhibition at 10 µM (UO-31): 84.5%; inhibition at 10 µM (A498): 102%; inhibition at 10 µM (HCT-15): 85.4%; inhibition at 10 µM (HOP-62): 71.9%; inhibition at 10 µM (TK-10): 61.4%; inhibition at 10 µM (UACC-62): 53.3%; inhibition at 10 µM (SF-295): 70.5%; inhibition at 10 µM (T-47D): 75.5%; inhibition at 10 µM (MALME-3M): 84.8%
Cc1cccc(CNc2c3ccccc3nc3ccccc23)c1 [Compound 3, Acridin-9-yl-(3-methylbenzyl)-amine]	69.7%	93.8%	64.2%	93%	69.2%	79.7%	74.3%	72.1%	116%	97.7%	70.9%	47.9%	70.3%	63.8%	103%	77.2%	87.5%	80.2%	55.5%	73.9%	inhibition at 10 µM (HCC-2998): 96.4%; inhibition at 10 µM (786-0): 75.8%; inhibition at 10 µM (HCT-116): 90.2%; inhibition at 10 µM (UO-31): 85.3%; inhibition at 10 µM (A498): 102%; inhibition at 10 µM (HCT-15): 84.1%; inhibition at 10 µM (HOP-62): 59.6%; inhibition at 10 µM (TK-10): 61.6%; inhibition at 10 µM (UACC-62): 57.2%; inhibition at 10 µM (SF-295): 74.7%; inhibition at 10 µM (T-47D): 74.7%; inhibition at 10 µM (MALME-3M): 85.9%
Cc1ccc(CNc2c3ccccc3nc3ccccc23)cc1 [Compound 4, Acridin-9-yl-(4-methylbenzyl)-amine]	61.5%	91%	61.9%	96.8%	65.8%	78.2%	73.9%	75.5%	99.7%	95.7%	68.8%	51%	70.7%	60.6%	101%	72%	74.5%	69.9%	62.1%	75.1%	inhibition at 10 µM (HCC-2998): 103%; inhibition at 10 µM (786-0): 74.6%; inhibition at 10 µM (HCT-116): 88%; inhibition at 10 µM (UO-31): 88%; inhibition at 10 µM (A498): 92.4%; inhibition at 10 µM (HCT-15): 84.4%; inhibition at 10 µM (HOP-62): 56.4%; inhibition at 10 µM (TK-10): 64.2%; inhibition at 10 µM (UACC-62): 56.6%; inhibition at 10 µM (SF-295): 68.7%; inhibition at 10 µM (T-47D): 71.9%; inhibition at 10 µM (MALME-3M): 83.8%
COc1ccccc1CNc1c2ccccc2nc2ccccc12 [Compound 5, Acridin-9-yl-(2-methoxybenzyl)-amine]	38%	83.2%	50.2%	81.8%	45.7%	68.1%	65.2%	57.8%	87.2%	79.3%	57.4%	37.6%	69.1%	35.9%	90.1%	59.1%	55.2%	40.8%	34.3%	65.3%	inhibition at 10 µM (HCC-2998): 61.1%; inhibition at 10 µM (786-0): 60.7%; inhibition at 10 µM (HCT-116): 87.3%; inhibition at 10 µM (UO-31): 66.3%; inhibition at 10 µM (A498): 86.7%; inhibition at 10 µM (HCT-15): 74%; inhibition at 10 µM (HOP-62): 55.5%; inhibition at 10 µM (TK-10): 44.5%; inhibition at 10 µM (UACC-62): 39.5%; inhibition at 10 µM (SF-295): 62.6%; inhibition at 10 µM (T-47D): 53.8%; inhibition at 10 µM (MALME-3M): 54.1%
COc1cccc(CNc2c3ccccc3nc3ccccc23)c1 [Compound 6, Acridin-9-yl-(3-methoxybenzyl)-amine]	44.4%	85.4%	54.1%	74.5%	45.2%	68.1%	62.5%	56.4%	90.4%	93.6%	57%	38.3%	62.7%	45%	91.6%	64.8%	59.1%	42.4%	48.2%	62.1%	inhibition at 10 µM (HCC-2998): 60.7%; inhibition at 10 µM (786-0): 62.7%; inhibition at 10 µM (HCT-116): 90.1%; inhibition at 10 µM (UO-31): 73%; inhibition at 10 µM (A498): 96.3%; inhibition at 10 µM (HCT-15): 75.6%; inhibition at 10 µM (HOP-62): 53.5%; inhibition at 10 µM (TK-10): 48.3%; inhibition at 10 µM (UACC-62): 36.5%; inhibition at 10 µM (SF-295): 64%; inhibition at 10 µM (T-47D): 54.1%; inhibition at 10 µM (MALME-3M): 56%
